Data on six compounds can be found in ChEMBL document CHEMBL1130465, “Peptidic prodrugs of novel aminomethyl-THF 1-methylcarbapenems” (1997).

Molecules are shown by their SMILES. ≈ marks a conversion by molar mass, not a printed value.

Holding throughout (format): functional
Test [1] concerns Pseudomonas aeruginosa. As to the kind of experiment: In vitro antimicrobial activity against Pseudomonas aeruginosa ATCC 27853 strain.
For test [2], the system named is Staphylococcus aureus. As to the kind of experiment: In vitro antimicrobial activity against Staphylococcus aureus ATCC 29213 strain.
The subject of test [3] is Escherichia coli. As to the kind of experiment: In vitro antimicrobial activity against Escherichia coli GC 1792 strain.
For test [4], the system named is Staphylococcus aureus. As to the kind of experiment: In vitro antimicrobial activity against Staphylococcus aureus GC 2220 strain.
The test system of the next test is Enterococcus faecalis. As to the kind of experiment: In vitro antimicrobial activity against Enterococcus faecalis GC 842 strain.
In test [5] the test system is Mus musculus. As to the kind of experiment: Tested for oral activity against Staphylococcus aureus smith infection in mice after single subcutaneous dose(SSC).
The subject of test [6] is Escherichia coli. As to the kind of experiment: In vitro antimicrobial activity against Escherichia coli ATCC 25922 strain.
Test [7] relates to Stenotrophomonas maltophilia. As to the kind of experiment: In vitro antimicrobial activity against Xanthomonas maltophilia GC 562 strain.
The test system of test [8] is Mus musculus. As to the kind of experiment: Tested for oral activity against Staphylococcus aureus smith infection in mice after single oral dose(SOD).
Test [9] relates to Acinetobacter calcoaceticus. As to the kind of experiment: In vitro antimicrobial activity against Acinetobacter calcoaceticus GC 756 strain.
The subject of test [10] is Pseudomonas aeruginosa. As to the kind of experiment: In vitro antimicrobial activity against Pseudomonas aeruginosa GC 1544 strain.
A short description of test [11]: Ratio of ED50 of single oral dose to ED50 of single subcutaneous dose against Staphylococcus aureus smith infection in mice.
In another test the test system is Enterobacter cloacae. As to the kind of experiment: In vitro antimicrobial activity against Enterobacter cloacae GC 2209 strain.
The subject of a further test is Enterococcus faecium. As to the kind of experiment: In vitro antimicrobial activity against Enterococcus faecium GC 1182 strain.
Test [12] relates to Escherichia coli. As to the kind of experiment: In vitro antimicrobial activity against Escherichia coli GC 2205 strain.
In the next test the test system is Morganella morganii. As to the kind of experiment: In vitro antimicrobial activity against Morganella morganii GC 2213 strain.
A further test has as its system Citrobacter freundii. As to the kind of experiment: In vitro antimicrobial activity against Citrobacter freundii GC 2211 strain.
The species named for test [13] is Mus musculus. As to the kind of experiment: animal or person.
Description: Tested for oral activity against Escherichia coli #311 infection in mice after single oral dose(SOD)
The species entered for test [14] is Mus musculus. As to the kind of experiment: animal or person. This is another data set of the same source.
Description: Tested for oral activity against Escherichia coli #311 infection in mice after single subcutaneous dose(SSC)
Setting [15] is: Pseudomonas aeruginosa, ATCC 27853, read-out: MIC.
Where [16] appears, read: Escherichia coli, read-out: MIC.
Setting [17] is: Staphylococcus aureus, read-out: MIC.
Setting [18] is: Enterococcus faecalis, read-out: MIC.
Where [19] appears, read: Mus musculus, po, read-out: ED50.
Setting [20] is: Acinetobacter calcoaceticus, read-out: MIC.
Where [21] appears, read: Pseudomonas aeruginosa, read-out: MIC.
Setting [22] is: Enterococcus faecium, read-out: MIC.
Where [23] appears, read: Morganella morganii, read-out: MIC.
[24] abbreviates: Citrobacter freundii, read-out: MIC.

Consider `C[C@@H](N)C(=O)NC[C@@H]1COC[C@@H]1SC1=C(C(=O)O)N2C(=O)[C@H]([C@@H](C)O)C2[C@H]1C` (stereo not given in full), for which the MIC in the test with Pseudomonas aeruginosa [1] (setting [15]) turned out to be 64 µg/mL (≈ 155 µM); in the test with Staphylococcus aureus [2], 0.5 µg/mL (≈ 1.21 µM); in the test with Escherichia coli [3] (setting [16]) it was 0.25 µg/mL (≈ 0.605 µM); with Staphylococcus aureus [4] (setting [17]), 8 µg/mL (≈ 19.3 µM); in the test with Enterococcus faecalis (setting [18]), 16 µg/mL (≈ 38.7 µM); against Escherichia coli [6], 0.25 µg/mL (≈ 0.605 µM). Further, the MIC in [7] is over 128 µg/mL; in [9] (setting [20]), 16 µg/mL (≈ 38.7 µM); in the test on Pseudomonas aeruginosa [10] (setting [21]), 128 µg/mL (≈ 310 µM); against Enterobacter cloacae it was 1 µg/mL (≈ 2.42 µM); with Enterococcus faecium (setting [22]), over 128 µg/mL; against Escherichia coli [12] it was 0.25 µg/mL (≈ 0.605 µM). Also, the MIC with Morganella morganii (setting [23]) was found to be 2 µg/mL (≈ 4.84 µM); in the test with Citrobacter freundii (setting [24]), 4 µg/mL (≈ 9.67 µM). In addition, the ED50 in the test on Mus musculus [5] (Mus musculus, read-out: ED50) amounted to 0.11 mg/kg; in the test on Mus musculus [8] (setting [19]) it was 4.5 mg/kg. Moreover, in test [11], the Ratio is recorded as 41.

With `C[C@H]1C(S[C@@H]2CCO[C@@H]2CNC(=O)[C@H](N)Cc2ccccc2)=C(C(=O)O)N2C(=O)[C@H]([C@@H](C)O)C12` (stereo not given in full), the minimum inhibitory concentration (MIC) was 64 µg/mL (≈ 131 µM) in the test on Pseudomonas aeruginosa [1] (setting [15]); 0.25 µg/mL (≈ 0.511 µM) against Staphylococcus aureus [2]; 0.5 µg/mL (≈ 1.02 µM) with Escherichia coli [3] (setting [16]); 4 µg/mL (≈ 8.17 µM) in the test with Staphylococcus aureus [4] (setting [17]); 1 µg/mL (≈ 2.04 µM) in the test on Enterococcus faecalis (setting [18]); 0.25 µg/mL (≈ 0.511 µM) against Escherichia coli [6]. The MIC in test [7] was over 128 µg/mL; in [9] (setting [20]), 64 µg/mL (≈ 131 µM); in the test with Pseudomonas aeruginosa [10] (setting [21]), 128 µg/mL (≈ 261 µM); with Enterobacter cloacae, 4 µg/mL (≈ 8.17 µM); in the test on Enterococcus faecium (setting [22]), 128 µg/mL (≈ 261 µM); with Escherichia coli [12], 0.03 µg/mL (≈ 0.0613 µM). The MIC in the test on Morganella morganii (setting [23]) came to 4 µg/mL (≈ 8.17 µM); with Citrobacter freundii (setting [24]) it was 8 µg/mL (≈ 16.3 µM). Besides, the ED50 came out at 0.06 mg/kg in the test on Mus musculus [5] (Mus musculus, read-out: ED50); 1.2 mg/kg in the test listed under Mus musculus [13] (setting [19]); 0.28 mg/kg with Mus musculus [8] (setting [19]); 0.48 mg/kg in the test filed under Mus musculus [14] (Mus musculus, read-out: ED50). Further, the Ratio in test [11] is given as 4.7.

Turning to `CC(C)[C@@H](N)C(=O)NC[C@H]1OCC[C@H]1SC1=C(C(=O)O)N2C(=O)[C@H]([C@@H](C)O)C2[C@H]1C` (stereo not given in full), the MIC in the test on Pseudomonas aeruginosa [1] (setting [15]) was 32 µg/mL (≈ 72.5 µM); in the test on Staphylococcus aureus [2], 0.25 µg/mL (≈ 0.566 µM); with Escherichia coli [3] (setting [16]) it was 0.12 µg/mL (≈ 0.272 µM); in the test on Staphylococcus aureus [4] (setting [17]) it was 8 µg/mL (≈ 18.1 µM); with Enterococcus faecalis (setting [18]), 2 µg/mL (≈ 4.53 µM); in the test on Escherichia coli [6] it was at most 0.06 µg/mL. Also, the minimal inhibitory concentration (MIC) is over 128 µg/mL in [7]; 16 µg/mL (≈ 36.2 µM) in [9] (setting [20]); 128 µg/mL (≈ 290 µM) in the test with Pseudomonas aeruginosa [10] (setting [21]); 0.5 µg/mL (≈ 1.13 µM) against Enterobacter cloacae; over 128 µg/mL in the test with Enterococcus faecium (setting [22]); at most 0.06 µg/mL against Escherichia coli [12]. The MIC in the test on Morganella morganii (setting [23]) and in the test with Citrobacter freundii (setting [24]) was 1 µg/mL (≈ 2.26 µM) each time. Moreover, the ED50 in the test with Mus musculus [5] (Mus musculus, read-out: ED50) came to 0.07 mg/kg; in the test listed under Mus musculus [13] (setting [19]) it was 0.31 mg/kg; in the test on Mus musculus [8] (setting [19]), 0.1 mg/kg; in the test listed under Mus musculus [14] (Mus musculus, read-out: ED50), 0.29 mg/kg. The Ratio in test [11] worked out at 1.4.

Regarding `C[C@@H](N)C(=O)NC[C@H]1COC[C@H]1SC1=C(C(=O)O)N2C(=O)[C@H]([C@@H](C)O)C2[C@H]1C` (stereo not given in full), the MIC is 8 µg/mL (≈ 19.3 µM) with Pseudomonas aeruginosa [1] (setting [15]); 0.5 µg/mL (≈ 1.21 µM) with Staphylococcus aureus [2]; under 0.06 µg/mL with Escherichia coli [3] (setting [16]); 32 µg/mL (≈ 77.4 µM) with Staphylococcus aureus [4] (setting [17]); 2 µg/mL (≈ 4.84 µM) with Enterococcus faecalis (setting [18]); under 0.06 µg/mL against Escherichia coli [6]. Besides, the MIC in test [7] is over 128 µg/mL; in [9] (setting [20]), 8 µg/mL (≈ 19.3 µM); with Pseudomonas aeruginosa [10] (setting [21]) it was 32 µg/mL (≈ 77.4 µM); in the test on Enterobacter cloacae it was 0.25 µg/mL (≈ 0.605 µM); in the test on Enterococcus faecium (setting [22]), 128 µg/mL (≈ 310 µM); with Escherichia coli [12], under 0.06 µg/mL. In addition, the MIC with Morganella morganii (setting [23]) came to 1 µg/mL (≈ 2.42 µM); in the test with Citrobacter freundii (setting [24]), 2 µg/mL (≈ 4.84 µM). Also, the ED50 in the test with Mus musculus [5] (Mus musculus, read-out: ED50) was 0.11 mg/kg; in the test with Mus musculus [8] (setting [19]), 4 mg/kg. Besides, the Ratio in test [11] turned out to be 36.

With `C[C@H]1C(SC2COC(CN)C2)=C(C(=O)O)N2C(=O)[C@H]([C@@H](C)O)C12` (stereo in doubt; cis), the MIC against Pseudomonas aeruginosa [1] was 8 µg/mL (≈ 23.4 µM); in the test on Escherichia coli [3] it was under 0.06 µg/mL; against Staphylococcus aureus [4], 4 µg/mL (≈ 11.7 µM); against Enterococcus faecalis, 2 µg/mL (≈ 5.84 µM); in test [9], 20 µg/mL (≈ 58.4 µM); in the test on Pseudomonas aeruginosa [10], 16 µg/mL (≈ 46.7 µM). Moreover, the MIC with Enterococcus faecium is 128 µg/mL (≈ 374 µM); against Morganella morganii, 0.5 µg/mL (≈ 1.46 µM); against Citrobacter freundii, under 0.06 µg/mL. In addition, the ED50 was found to be 0.05 mg/kg in the test with Mus musculus [5], 3.5 mg/kg in the test listed under Mus musculus [13], 1.1 mg/kg with Mus musculus [8] and 0.28 mg/kg in the test filed under Mus musculus [14]. In addition, in test [11], the Ratio came out at 22.

With `C[C@@H](O)[C@H]1C(=O)N2C(C(=O)O)=C(SCCNC=N)C[C@H]12.O` [IMIPENEM], the MIC with Pseudomonas aeruginosa [1] (setting [15]) is 1 µg/mL; in the test with Staphylococcus aureus [2], under 0.06 µg/mL; in the test on Escherichia coli [3] (setting [16]), under 0.06 µg/mL; in the test on Staphylococcus aureus [4] (setting [17]), 1 µg/mL; in the test with Enterococcus faecalis (setting [18]), 1 µg/mL; in the test with Escherichia coli [6], 0.12 µg/mL. The MIC in [7] was over 128 µg/mL; in test [9] (setting [20]), 0.25 µg/mL; with Pseudomonas aeruginosa [10] (setting [21]), 16 µg/mL; in the test on Enterobacter cloacae it was under 0.06 µg/mL; in the test with Enterococcus faecium (setting [22]) it was 64 µg/mL; in the test on Escherichia coli [12], 0.12 µg/mL. In addition, the MIC worked out at 1 µg/mL with Morganella morganii (setting [23]) and 0.25 µg/mL in the test with Citrobacter freundii (setting [24]).
